Laboratory results from US20080199527A1, “Enteric Coated Azithromycin Multiparticulates” (Pfizer Inc., priority 2004, published 2008).

Assay: Reactivity of enteric coating materials with azithromycin: ester formation in 50/50 mixtures, LC/MS
Type: physicochemical
Conditions: 50/50 (w/w) mixture of azithromycin and material, 50° C. and 20% RH
Protocol: The reactivity of the materials useful for forming enteric coatings listed in Table 1 with azithromycin was determined as follows. […] (CAT), and triacetin, were prepared by adding equal weights of azithromycin and the material to a mortar and mixing with a spatula. […] Azithromycin esters were identified in each of the mixtures by LC/MS detection. […] The sample solutions were then filtered with a 0.45 μm nylon syringe filter. The sample solutions were then analyzed by HPLC using a Hypersil BDS C18 4.6 mm×250 mm (5 μm) HPLC column on a Hewlett Packard HP1100 liquid chromatograph. The mobile phase employed for sample elution was a gradient of isopropyl alcohol and 25 mM ammonium acetate buffer (pH approximately 7) as follows: initial conditions of 50/50 (v/v) isopropyl alcohol/ammonium acetate; the isopropyl alcohol percentage was then increased to 100% over 30 minutes and held at 100% for an additional 15 minutes. The flow rate was 0.80 mL/min. The method used a 75 μL injection volume and a 43° C. column temperature. A Finnigan LCQ Classic mass spectrometer was used for detection. […] Azithromycin ester values were calculated from the MS peak areas based on an external azithromycin standard. […] The results of this analysis are shown below as are the measured rates of ester formation (Re) at 50° C.

Compound: CC(=O)OCC(COC(C)=O)OC(C)=O [Triacetin, triacetin]
- Re at 50° C. (rate of ester formation): 6.5 × 10^−2 wt %/day
- Concentration of Azithromycin Esters (storage time 10 days): 0.65 wt %
